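Five concentrations, 48 hours, 96-well plates. Here, GI50 denotes the concentration required for 50% inhibition of growth.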 Activity calls are given as the source filed them. Rule as the data show it: active = GI50 up to about 1.1 µM and inactive = higher.
Experiments:
Assay in all cases: growth of human tumour cells (NCI), 48 h
CCRF-CEM = test system: CCRF-CEM
DU-145 = test system: DU-145
Hs-578T = test system: Hs-578T
M14 = test system: M14
MCF7 = test system: MCF7
MDA-MB-435 = test system: MDA-MB-435
MDA-N = test system: MDA-N
NCI-H23 = test system: NCI-H23
NCI/ADR-RES = test system: NCI/ADR-RES
SR = test system: SR
T47D = test system: T47D
TK-10 = test system: TK-10
BT-549 = test system: BT-549
KM12 = test system: KM12
Malme-3M = test system: Malme-3M
DLD-1 = test system: DLD-1
DMS-114 = test system: DMS-114
DMS-273 = test system: DMS-273
KM-20L2 = test system: KM-20L2
XF498 = test system: XF498

Measured: GI50

CN1C[C@H]2[C@@H](C1=O)[C@H](c1ccc([N+](=O)[O-])cc1)ON2C
inactive: CCRF-CEM > 100 µM | DU-145 > 100 µM | Hs-578T > 100 µM | M14 > 100 µM | MCF7 > 100 µM | MDA-MB-435 > 100 µM | MDA-N > 100 µM | NCI-H23 > 100 µM | NCI/ADR-RES > 100 µM | SR > 100 µM | T47D > 100 µM | TK-10 > 100 µM

Cc1c(Cl)nc(Nc2nc3ccccc3[nH]2)nc1Cl
inactive: BT-549 > 100 µM | DU-145 39.4 µM | Hs-578T 27.2 µM | KM12 17.1 µM | M14 > 100 µM | MDA-MB-435 > 100 µM | MDA-N > 100 µM | Malme-3M > 100 µM | NCI-H23 92.9 µM | NCI/ADR-RES > 100 µM | SR 19.9 µM | T47D 43.7 µM | TK-10 > 100 µM

c1ccc2c(c1)N=C(NC1CCCCC1)CCN2
inactive: BT-549 > 100 µM | CCRF-CEM > 100 µM | DU-145 > 100 µM | Hs-578T > 100 µM | KM12 > 100 µM | M14 > 100 µM | MDA-MB-435 > 100 µM | MDA-N > 100 µM | Malme-3M > 100 µM | NCI-H23 > 100 µM | NCI/ADR-RES > 100 µM | TK-10 > 100 µM

O=C(O)C1=C(CO)Oc2cc3c(cc2C1c1ccc2c(c1)OCO2)OCO3 (stereo unspecified)
inactive: CCRF-CEM > 100 µM | DLD-1 > 100 µM | DMS-114 > 100 µM | DMS-273 > 100 µM | KM-20L2 > 100 µM | M14 > 100 µM | Malme-3M > 100 µM | NCI-H23 > 100 µM | TK-10 > 100 µM | XF498 > 100 µM

CC(c1ccccc1)/[N+]([O-])=C/c1ccccc1 (stereo unspecified)
inactive: CCRF-CEM > 100 µM | DLD-1 > 100 µM | DMS-114 > 100 µM | DMS-273 > 100 µM | KM-20L2 > 100 µM | KM12 > 100 µM | NCI-H23 > 100 µM | TK-10 > 100 µM | XF498 > 100 µM

Cc1cccc(C(O)c2ccccn2)c1O (stereo unspecified)
inactive: BT-549 > 100 µM | CCRF-CEM > 100 µM | DU-145 > 100 µM | Hs-578T > 100 µM | KM12 > 100 µM | MCF7 > 100 µM | MDA-MB-435 > 100 µM | MDA-N > 100 µM | Malme-3M > 100 µM | NCI-H23 > 100 µM | NCI/ADR-RES > 100 µM | SR > 100 µM | T47D 15.7 µM | TK-10 > 100 µM

O=S(=O)(c1ccccc1)C1CC(c2nc3ccccc3[nH]2)=NO1 (stereo unspecified)
inactive: BT-549 > 100 µM | CCRF-CEM 21.8 µM | DU-145 > 100 µM | Hs-578T > 100 µM | MCF7 53.3 µM | MDA-MB-435 72.3 µM | MDA-N > 100 µM | Malme-3M 8.26 µM | NCI-H23 > 100 µM | NCI/ADR-RES > 100 µM | SR 29.3 µM | T47D > 100 µM | TK-10 74.8 µM

NNC(N)Nc1ccccc1 (stereo unspecified)
inactive: BT-549 > 100 µM | CCRF-CEM > 100 µM | DU-145 > 100 µM | Hs-578T > 100 µM | KM12 > 100 µM | M14 > 100 µM | MCF7 > 100 µM | MDA-MB-435 > 100 µM | MDA-N > 100 µM | Malme-3M > 100 µM | NCI-H23 > 100 µM | NCI/ADR-RES > 100 µM | SR > 100 µM | T47D > 100 µM | TK-10 > 100 µM

O=C(NC(Cc1ccc(I)cc1)C(=O)O)c1ccc(Cl)cc1 (stereo unspecified)
inactive: CCRF-CEM > 81.5 µM | DLD-1 > 100 µM | DMS-273 > 100 µM | KM-20L2 > 100 µM | KM12 > 100 µM | MCF7 37.8 µM | Malme-3M 89.7 µM | NCI-H23 > 100 µM | NCI/ADR-RES > 100 µM | XF498 > 80.9 µM

CC(C)=CC1CC(=O)C1(C)Sc1ccccc1 (stereo unspecified)
inactive: CCRF-CEM 19.1 µM | DLD-1 52.8 µM | DMS-114 16.6 µM | KM-20L2 36.3 µM | KM12 > 100 µM | M14 96.4 µM | Malme-3M > 100 µM | NCI-H23 56.4 µM | SR 20 µM | TK-10 > 100 µM | XF498 37.7 µM

Cc1cc(O)c(C(C)C)cc1SC#N
inactive: BT-549 19.6 µM | CCRF-CEM 3.51 µM | DU-145 15.5 µM | Hs-578T 20.5 µM | KM12 17.6 µM | MCF7 14.9 µM | MDA-MB-435 13.7 µM | Malme-3M 17.4 µM | NCI-H23 17.2 µM | NCI/ADR-RES 19.2 µM | T47D 17.8 µM | TK-10 16.9 µM
